According to article PMC7771846 (Biomolecules & Therapeutics, 2020):

Target: Hsp90α (Homo sapiens, UniProt P07900)
Test: SPR
Assay type: binding

**Q.** With `CN1C(=O)[C@@]23C[C@]4([C@]56C[C@@]78SS[C@@](CO)(C(=O)N7[C@H]5Nc5ccccc56)N(C)C8=O)c5ccccc5N[C@@H]4N2C(=O)[C@]1(CO)SS3` [Chaetocin] as the molecule, how does the Kd read?
**A.** Its Kd is 2.82 µM.
